Source: ChEMBL document CHEMBL1201862, “PubChem BioAssay data set” (2004)
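Values below derive from 48-hour exposures of cells grown in 96-well plates, with endpoints linearly interpolated between the two concentrations bracketing the appropriate inhibition level. The concentration for 50% growth inhibition is given as GI50.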 The source made the active and inactive calls. Rule as the data show it: active = GI50 up to about 1.1 µM and inactive = higher.

Columns and labels:
Assay in all cases: DTP human tumour cell line panel, 48 h
[1] = test system: SR
[2] = test system: HCC 2998
[3] = test system: SF-268
[4] = test system: IGROV-1
[5] = test system: OVCAR-5
[6] = test system: UO-31
[7] = test system: TK-10
[8] = test system: RPMI-8226
[9] = test system: HCT-15
[10] = test system: EKVX
[11] = test system: SW-620
[12] = test system: SNB-19
[13] = test system: UACC-62
[14] = test system: SN12C
[15] = test system: OVCAR-8
[16] = test system: KM-20L2
[17] = test system: OVCAR-4
[18] = test system: Malme-3M
[19] = test system: RXF 393
[20] = test system: LOX IMVI
[21] = test system: SK-MEL-28
[22] = test system: 786-0
[23] = test system: DLD-1
[24] = test system: XF498
[25] = test system: CAKI-1
[26] = test system: NCI-H522
[27] = test system: SNB-75
[28] = test system: NCI-H460
[29] = test system: SK-OV-3
[30] = test system: MOLT-4
[31] = test system: HOP-62
[32] = test system: LXFL 529
[33] = test system: A549
[34] = test system: ACHN
[35] = test system: DMS-114
[36] = test system: HOP-92
[37] = test system: K562
[38] = test system: HOP-18
[39] = test system: CCRF-CEM
[40] = test system: COLO 205
[41] = test system: M14
[42] = test system: SK-MEL-5
[43] = test system: U-251
[44] = test system: NCI-H23
[45] = test system: HL-60
[46] = test system: SK-MEL-2
[47] = test system: SF-295
[48] = test system: A498
[49] = test system: OVCAR-3
[50] = test system: DMS-273
[51] = test system: M19-MEL
[52] = test system: HCT-116
[53] = test system: HT-29
[54] = test system: KM12
[55] = test system: UACC-257
[56] = test system: SF-539
[57] = test system: NCI-H226

CCOC(=O)c1cc2c(OCc3ccccc3)c(OC)cc3c2c(n1)N(c1ccc(OC)cc1)C(C)C3 (stereo not drawn)
GI50 [1]: > 50 µM (inactive) | GI50 [2]: 44.4 µM (inactive) | GI50 [3]: > 50 µM (inactive) | GI50 [4]: > 50 µM (inactive) | GI50 [5]: > 50 µM (inactive) | GI50 [6]: > 50 µM (inactive) | GI50 [7]: > 50 µM (inactive) | GI50 [8]: 2.69 µM (inactive) | GI50 [9]: > 50 µM | GI50 [10]: > 50 µM (inactive) | GI50 [11]: > 50 µM (inactive) | GI50 [12]: > 50 µM (inactive) | GI50 [13]: 49.3 µM (inactive) | GI50 [14]: > 50 µM (inactive) | GI50 [15]: > 50 µM (inactive) | GI50 [16]: 2.47 µM (inactive) | GI50 [17]: 10.4 µM (inactive) | GI50 [18]: > 50 µM (inactive) | GI50 [19]: 33.6 µM (inactive) | GI50 [20]: > 50 µM (inactive) | GI50 [21]: > 50 µM (inactive) | GI50 [22]: > 50 µM (inactive) | GI50 [23]: > 50 µM (inactive) | GI50 [24]: > 50 µM (inactive) | GI50 [25]: 23.2 µM (inactive) | GI50 [26]: 25.2 µM (inactive) | GI50 [27]: > 50 µM (inactive) | GI50 [28]: 49.9 µM (inactive) | GI50 [29]: > 50 µM (inactive) | GI50 [30]: > 50 µM (inactive) | GI50 [31]: > 50 µM (inactive) | GI50 [32]: 39.4 µM (inactive) | GI50 [33]: > 50 µM (inactive) | GI50 [34]: > 50 µM (inactive) | GI50 [35]: 38.3 µM (inactive) | GI50 [36]: 8.91 µM (inactive) | GI50 [37]: > 50 µM (inactive) | GI50 [38]: > 50 µM (inactive) | GI50 [39]: > 50 µM (inactive) | GI50 [40]: > 50 µM (inactive) | GI50 [41]: > 50 µM (inactive) | GI50 [42]: > 50 µM (inactive) | GI50 [43]: 28.6 µM (inactive) | GI50 [44]: > 50 µM (inactive) | GI50 [45]: 45.6 µM (inactive) | GI50 [46]: > 50 µM (inactive) | GI50 [47]: > 50 µM (inactive) | GI50 [48]: > 50 µM (inactive) | GI50 [49]: 23.2 µM (inactive) | GI50 [50]: > 50 µM (inactive) | GI50 [51]: > 50 µM (inactive) | GI50 [52]: > 50 µM (inactive)

O=c1c2ccccc2nc(-c2ccccc2)n1NC(=S)Nc1ccc(Cl)cc1[N+](=O)[O-]
GI50 [53]: 69.3 µM (inactive) | GI50 [1]: 33.3 µM (inactive) | GI50 [54]: 66.4 µM (inactive) | GI50 [3]: > 100 µM (inactive) | GI50 [4]: > 100 µM (inactive) | GI50 [5]: > 100 µM (inactive) | GI50 [6]: 42.2 µM (inactive) | GI50 [7]: > 100 µM (inactive) | GI50 [8]: 80.5 µM (inactive) | GI50 [9]: 35 µM | GI50 [55]: 88.3 µM (inactive) | GI50 [11]: > 100 µM (inactive) | GI50 [13]: 39.7 µM (inactive) | GI50 [14]: 65 µM (inactive) | GI50 [56]: 41.1 µM (inactive) | GI50 [15]: > 100 µM (inactive) | GI50 [17]: 88.5 µM (inactive) | GI50 [18]: > 100 µM (inactive) | GI50 [19]: 22.9 µM (inactive) | GI50 [20]: 56.8 µM (inactive) | GI50 [21]: 21.7 µM (inactive) | GI50 [22]: > 100 µM (inactive) | GI50 [23]: 87.9 µM (inactive) | GI50 [57]: 20.3 µM (inactive) | GI50 [25]: > 100 µM (inactive) | GI50 [26]: 42.7 µM (inactive) | GI50 [27]: 29.2 µM (inactive) | GI50 [28]: > 100 µM (inactive) | GI50 [29]: > 100 µM (inactive) | GI50 [30]: 73.3 µM (inactive) | GI50 [31]: 77.3 µM (inactive) | GI50 [32]: > 100 µM (inactive) | GI50 [33]: 67.3 µM (inactive) | GI50 [34]: > 100 µM (inactive) | GI50 [35]: 31.2 µM (inactive) | GI50 [36]: 55.1 µM (inactive) | GI50 [37]: 50.9 µM (inactive) | GI50 [38]: 27.4 µM (inactive) | GI50 [39]: 62.4 µM (inactive) | GI50 [40]: 51.5 µM (inactive) | GI50 [41]: > 100 µM (inactive) | GI50 [42]: 58.7 µM (inactive) | GI50 [43]: 80.4 µM (inactive) | GI50 [44]: > 100 µM (inactive) | GI50 [45]: 35.3 µM (inactive) | GI50 [46]: > 100 µM (inactive) | GI50 [47]: 92.3 µM (inactive) | GI50 [48]: 94 µM (inactive) | GI50 [50]: 49.8 µM (inactive) | GI50 [51]: 54.1 µM (inactive) | GI50 [52]: 54.2 µM (inactive)
